From article PMC11648822, “Lactam Truncation Yields a Dihydroquinazolinone Scaffold with Potent Antimalarial Activity that Targets PfATP4” (Chemmedchem, 2024) come the findings set out here.

The target of one assay is T1, Dd2‐PfATP4^WT (Plasmodium falciparum, UniProt A0A143ZZK9, G1128R).
T1 construct: We prepared membranes from Dd2‐Polδ‐PfATP4^G358S parasites (generated previously[22]) and Dd2‐Polδ parental parasites; endogenous in cells; host or cells: P. falciparum Dd2-Polδ trophozoites (membrane preparation)
T1 sequence (A0A143ZZK9 1-1264 G1128R): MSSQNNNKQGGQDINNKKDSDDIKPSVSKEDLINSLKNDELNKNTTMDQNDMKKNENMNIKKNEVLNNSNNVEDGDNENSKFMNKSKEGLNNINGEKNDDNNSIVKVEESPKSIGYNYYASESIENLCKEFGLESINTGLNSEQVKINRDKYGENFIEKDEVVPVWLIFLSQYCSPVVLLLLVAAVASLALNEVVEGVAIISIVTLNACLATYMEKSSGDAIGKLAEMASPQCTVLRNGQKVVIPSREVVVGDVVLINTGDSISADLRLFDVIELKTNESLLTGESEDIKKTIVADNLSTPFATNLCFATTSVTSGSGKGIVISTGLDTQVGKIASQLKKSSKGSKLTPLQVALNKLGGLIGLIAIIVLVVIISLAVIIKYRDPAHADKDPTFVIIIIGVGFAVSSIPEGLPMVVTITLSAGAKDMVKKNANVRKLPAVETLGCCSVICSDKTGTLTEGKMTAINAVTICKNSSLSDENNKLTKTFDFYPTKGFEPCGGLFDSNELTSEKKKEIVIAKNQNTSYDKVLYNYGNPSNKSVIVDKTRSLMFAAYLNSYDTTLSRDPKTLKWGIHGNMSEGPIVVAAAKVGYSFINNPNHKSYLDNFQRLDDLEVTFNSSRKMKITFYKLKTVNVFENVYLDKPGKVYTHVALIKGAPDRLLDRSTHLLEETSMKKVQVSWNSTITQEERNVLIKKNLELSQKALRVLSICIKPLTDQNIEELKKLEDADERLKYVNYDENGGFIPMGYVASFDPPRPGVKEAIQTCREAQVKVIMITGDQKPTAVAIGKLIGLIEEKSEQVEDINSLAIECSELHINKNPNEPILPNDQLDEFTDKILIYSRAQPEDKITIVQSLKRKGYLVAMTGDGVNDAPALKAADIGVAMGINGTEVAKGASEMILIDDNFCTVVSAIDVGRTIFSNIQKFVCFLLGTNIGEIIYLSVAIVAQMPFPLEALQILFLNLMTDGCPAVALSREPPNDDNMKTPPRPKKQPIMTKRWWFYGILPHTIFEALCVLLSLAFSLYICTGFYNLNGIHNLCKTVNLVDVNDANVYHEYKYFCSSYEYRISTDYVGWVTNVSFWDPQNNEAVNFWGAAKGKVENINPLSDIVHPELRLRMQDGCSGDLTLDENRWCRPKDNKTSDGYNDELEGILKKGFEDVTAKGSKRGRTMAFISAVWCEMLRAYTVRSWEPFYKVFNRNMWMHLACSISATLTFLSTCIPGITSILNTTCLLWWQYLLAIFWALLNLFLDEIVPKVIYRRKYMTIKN
The assay can be described thus: PfATP4 Na+ assay (membrane ATPase), Dd2-Polδ parental membranes. The class given is biochemical, P. falciparum. As to conditions: membranes from Dd2-Polδ parental parasites. The procedure: Figure 4 Dihydroquinazolinone analogs 14 and 36 (WJM062) inhibit Na^+‐ATPase activity in membranes prepared from isolated P. falciparum parasites, consistent with them being PfATP4 inhibitors. (A) The effects of dihydroquinazolinone compounds (2 μM), dihydroartemisinin (DHA; 50 nM; negative control) and 0.2 % v/v DMSO (solvent‐only control) on membrane ATPase activity under high‐[Na^+] conditions (152 mM Na^+) and low‐[Na^+] conditions (2 mM Na^+; stemming from the addition of 1 mM Na2ATP) in the presence and absence of the PfATP4 inhibitor cipargamin (50 nM). The membranes were prepared from isolated trophozoite‐stage 3D7 parasites. The Pi produced is expressed as a percentage of that measured in the 152 mM Na^+ Control. The data are from four independent experiments performed with different membrane preparations; the symbols show the data from individual experiments and the bars show the mean (+SEM). In individual experiments, the Pi produced in the 152 mM Na^+ Control varied from 66 to 96 nmol per mg (total) protein per min. A repeated measures ANOVA with a post hoc Tukey test was used to compare the (pre‐normalised) data for different compounds and conditions. […] In B−D, the Pi production measured in the low‐[Na^+] (2 mM) condition was subtracted from that measured in high‐[Na^+] […] The PfATP4‐associated ATPase activity is expressed as a percentage of that obtained for the high‐[Na^+] […]

Assay [1] concerns the target T2, PfATP4 (membranes prepared from 3D7 parasites) (Plasmodium falciparum, UniProt A0A143ZZK9).
T2 construct: The membranes were prepared from isolated trophozoite‐stage 3D7 parasites; endogenous in cells; host or cells: P. falciparum 3D7 trophozoites (membrane preparation)
Briefly: PfATP4 Na+ assay (membrane ATPase), 3D7 membranes. Type of assay: biochemical, P. falciparum. As to conditions: for effect on membrane ATPase activity (PfATP4): 2 μM, high-[Na+] (152 mM), cipargamin not present. How it is done:
Figure 4 Dihydroquinazolinone analogs 14 and 36 (WJM062) inhibit Na^+‐ATPase activity in membranes prepared from isolated P. falciparum parasites, consistent with them being PfATP4 inhibitors. (A) The effects of dihydroquinazolinone compounds (2 μM), dihydroartemisinin (DHA; 50 nM; negative control) and 0.2 % v/v DMSO (solvent‐only control) on membrane ATPase activity under high‐[Na^+] conditions (152 mM Na^+) and low‐[Na^+] conditions (2 mM Na^+; stemming from the addition of 1 mM Na2ATP) in the presence and absence of the PfATP4 inhibitor cipargamin (50 nM). The membranes were prepared from isolated trophozoite‐stage 3D7 parasites. The Pi produced is expressed as a percentage of that measured in the 152 mM Na^+ Control. The data are from four independent experiments performed with different membrane preparations; the symbols show the data from individual experiments and the bars show the mean (+SEM). In individual experiments, the Pi produced in the 152 mM Na^+ Control varied from 66 to 96 nmol per mg (total) protein per min. A repeated measures ANOVA with a post hoc Tukey test was used to compare the (pre‐normalised) data for different compounds and conditions. For comparisons between different conditions for the same test compound (or for the Control), significant differences are shown with black asterisks. For comparisons between the Control and a compound under the same test condition, significant differences are shown with coloured asterisks (in this case, grey asterisks, as the only significant differences were between the control and the dihydroquinazolinone compounds in the 152 mM Na^+ condition). ***P<0.001. (B) Concentration‐dependence of the effects of dihydroquinazolinone compounds on PfATP4‐associated ATPase activity in membranes prepared from 3D7 parasites. The data are the mean (shown + or − SEM) obtained from four independent experiments performed with different membrane preparations, with the exception of the lowest and second‐lowest concentrations of the compounds, for which data are from two and three independent experiments, respectively. (C and D) Potency of dihydroquinazolinone compounds against PfATP4‐associated ATPase activity in membranes prepared from Dd2‐Polδ‐PfATP4^G358S parasites (open triangles) and their Dd2‐Polδ parents (closed triangles). The data are the mean (shown + or − SEM) from four (C) or three (D) independent experiments. In B−D, the Pi production measured in the low‐[Na^+] (2 mM) condition was subtracted from that measured in high‐[Na^+] (152 mM) in the presence of each of the different concentrations of dihydroquinazolinone compounds to calculate the PfATP4‐associated ATPase activity. The PfATP4‐associated ATPase activity is expressed as a percentage of that obtained for the high‐[Na^+] (152 mM) Control.
Membrane ATPase assays were performed using a PiColorLock Gold Phosphate Detection System (Innova Biosciences), essentially as described previously.[25] Membranes were prepared either from isolated 3D7 trophozoites or from isolated Dd2‐Polδ‐PfATP4^G358S [22] and Dd2‐Polδ trophozoites.[26]

T2 sequence (A0A143ZZK9 whole entry): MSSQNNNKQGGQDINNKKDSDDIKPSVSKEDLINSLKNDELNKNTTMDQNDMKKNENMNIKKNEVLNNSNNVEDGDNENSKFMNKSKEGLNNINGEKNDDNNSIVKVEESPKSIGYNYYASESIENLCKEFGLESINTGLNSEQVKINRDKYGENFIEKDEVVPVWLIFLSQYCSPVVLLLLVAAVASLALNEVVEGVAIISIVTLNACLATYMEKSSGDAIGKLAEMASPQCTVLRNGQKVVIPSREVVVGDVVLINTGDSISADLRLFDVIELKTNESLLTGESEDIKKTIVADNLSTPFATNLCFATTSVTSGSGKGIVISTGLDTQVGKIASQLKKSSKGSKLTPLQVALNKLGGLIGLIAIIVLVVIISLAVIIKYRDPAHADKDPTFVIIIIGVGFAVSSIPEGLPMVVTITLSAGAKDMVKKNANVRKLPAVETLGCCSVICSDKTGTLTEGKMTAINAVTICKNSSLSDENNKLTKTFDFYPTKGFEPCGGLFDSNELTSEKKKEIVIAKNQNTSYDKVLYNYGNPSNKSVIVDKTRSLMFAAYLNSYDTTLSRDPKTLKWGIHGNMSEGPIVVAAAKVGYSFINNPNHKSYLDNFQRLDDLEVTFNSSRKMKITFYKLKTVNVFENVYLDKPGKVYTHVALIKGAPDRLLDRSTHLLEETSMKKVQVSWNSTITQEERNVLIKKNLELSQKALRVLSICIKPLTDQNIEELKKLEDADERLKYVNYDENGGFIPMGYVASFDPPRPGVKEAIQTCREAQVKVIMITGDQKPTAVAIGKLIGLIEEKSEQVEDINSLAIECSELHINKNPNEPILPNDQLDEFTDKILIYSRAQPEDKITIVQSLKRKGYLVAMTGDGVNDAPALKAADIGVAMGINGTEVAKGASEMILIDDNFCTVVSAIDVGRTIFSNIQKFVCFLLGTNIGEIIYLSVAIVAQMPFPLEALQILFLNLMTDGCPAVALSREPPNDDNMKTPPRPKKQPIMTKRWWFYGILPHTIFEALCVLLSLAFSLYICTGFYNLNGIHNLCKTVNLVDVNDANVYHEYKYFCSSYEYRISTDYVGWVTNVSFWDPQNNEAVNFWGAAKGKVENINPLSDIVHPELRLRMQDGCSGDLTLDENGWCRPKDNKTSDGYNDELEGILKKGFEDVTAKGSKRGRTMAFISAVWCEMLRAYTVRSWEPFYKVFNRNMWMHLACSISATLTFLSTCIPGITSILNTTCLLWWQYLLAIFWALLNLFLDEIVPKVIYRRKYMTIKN

As usually defined, the EC50 is the concentration at which the effect is half-maximal. In the case of `CN1C(=O)c2ccc(Cl)cc2NC1(C)C(=O)Nc1cncc(Cl)c1` (stereo not drawn) [Compound 14, 7‐Chloro‐N‐(5‐chloro‐3‐pyridyl)‐2,3‐dimethyl‐4‐oxo‐1H‐quinazoline‐2‐carboxamide], the EC50 at Dd2‐PfATP4^WT was 8.4 nM; in assay [1] it was 7.2 nM. Besides, in assay [1], the “effect on membrane ATPase activity (PfATP4)” value is reported as “complete inhibition”.

Take `COc1cc(F)c2c(c1)NC(C)(C(=O)Nc1cncc(Cl)c1)N(C)C2=O` (stereo not drawn) [Compound 36, N‐(5‐Chloropyridin‐3‐yl)‐5‐fluoro‐7‐methoxy‐2,3‐dimethyl‐4‐oxo‐1,2,3,4‐tetrahydroquinazoline‐2‐carboxamide]: the concentration for a half-maximal effect (EC50) on Dd2‐PfATP4^WT is 7.8 nM; in assay [1], 8.6 nM. In assay [1], the “effect on membrane ATPase activity (PfATP4)” value is recorded as “complete inhibition”.
